Data taken from patent US20260133193A1, “COMPOSITIONS AND METHODS FOR TREATING INFLAMMATORY DISEASES” (University of Washington, priority 2018, published 2026).

Tests used:
Assay type in all cases: cell-based, human
FcgRIIA on neutrophils [1] = experiment: FcgRIIA shedding, flow cytometry of neutrophil cell surface FcgRs; details: for effect on R848 (TLR7/8)-mediated shedding of FcgRIIA on neutrophils: agent added before R848, flow cytometry IV.3; for neutrophil cell surface expression of FcgRIIA after stimulus: flow cytometry, clone IV.3, vs non-stimulated
Source text: To determine the mechanism for the TLR-induced reduction in RNP-IC phagocytosis, we analyzed the neutrophil surface expression of FcgRs after exposure to TLR ligand. Neutrophils were activated with R848 and cell surface expression of FcgRs analyzed by flow cytometry. The results were presented as FcgR levels as compared to no R848 added (% of control). The experiment was repeated five (FcgRI), seven (FcgRIII), and twenty-five (FcgRIIA) times; combined results were compared using paired t test (FcgRIIA, P<0.0001; FcgRI, P=0.027; FcgRIII, P=0.0044). […] In this experiment, neutrophils were activated with the TLR7/8 agonist R848 and analyzed for FcgRIIA at different time-points and concentrations. The experiment was repeated four (concentration) and six (kinetics) times; combined results were compared using paired t test (30 min, P=0.0158; 60 min, P<0.0001; 120 min, P=0.0003; 0.125 μg/mL, P=0.0071; 0.25 μg/mL, P=0.0058; 0.5 μg/mL, P=0.0008; 1 μg/mL, P<0.0001; 2 μg/mL, P<0.0001). […] For these experiments, neutrophils were activated with TLR ligands (LPS, 1 μg/mL, PAM3CSK4 (5 μg/mL), CpG DNA (2 μg/mL), Loxoribine (0.1 mM), CL075 (2.5 μg/mL) or R848 (2 μg/mL)) for 60 minutes or 4 hours and analyzed for FcgRIIA, FcgRII or CD11b and CD66b cell surface expression by flow cytometry. Experiments were repeated six (LPS, P=0.0008), eight (CpG DNA, P=0.035; Loxoribine, P<0.0001, and CL075, P<0.0001), ten (PAM3CSK4, P<0.0001) and forty times (R848, P<0.0001); combined results were compared using paired t test. Additional experiments were repeated four and eight times; combined results were compared using paired t test (CD11b: R848, P<0.0001; LPS, P=0.0002; PAM, P<0.0001; CpG DNA, P<0.0001; CD66b: R848, P<0.0001; LPS, P<0.0001; PAM, P<0.0001; CpG DNA, P=0.014).
Neutrophils were activated by LPS (1 μg/mL), R848 (2 μg/mL), PAM3CSK4 (5 μg/mL), Loxoribine (0.1 mM), CL075 (2.5 μg/mL) or CpG DNA (2 μg/mL) for 30 minutes, followed by analysis of cell surface expression of CD32A (IV.3; Stemcell Technologies, FUN-2, BioLegend), CD16 (clone 3G8), CD64 (clone 10.1), and CD66b (all from BioLegend) by flow cytometry. For intracellular staining, neutrophils were fixed in 2% paraformaldehyde for 10 minutes, permeabilized with saponin (diluted 1:1000 in PBS) for 15 minutes and stained with anti-CD32A antibodies diluted 1:100. In some experiments, neutrophils were incubated with inhibitors (DPI (25 μM, Sigma), apocynin (100 μM, Sigma), GM-6001 (10 μM, Enzo Life Sciences), LY294002 (10 μM), cOmplete Protease Inhibitor Cocktail Tablets (1× dissolved in H2O, Roche), neutrophil elastase IV inhibitor (25 μM, Calbiochem), E-64 (1 μM, Sigma), 4-(2-Aminoethyl)benzenesulfonyl fluoride hydrochloride (AEBSF, 0.1 mM, Sigma), CMK (25 μM, Enzo Life Sciences), cytochalasin B (5 μM, Sigma) or chymostatin (10 μg/mL, Sigma)) or recombinant furin (100 ng/mL, maximal dose tolerated by the neutrophils, Peprotech) 30 minutes prior to addition of stimuli. In some experiments cell surface levels of B cell activating factor (BAFF, Biolegend) was analyzed according to the same protocol as described above. Monocytes and pDCs were detected using antibodies to CD14 (BioLegend) and CD304 (Miltenyi Biotech), respectively.

neutrophils = experiment: ROS analysis in neutrophils (DHR123, OxyBURST); details: flow cytometry and fluorimetry, cell impermeable ROS dye
FcgRIIA on neutrophils [2] = experiment: SLE serum-mediated FcgRIIA shedding on healthy control neutrophils; details: sera from 6 SLE patients, IV.3/FUN2
Method: As neutrophil and monocyte FcgRIIA shedding was highly correlated in SLE patients upon ex vivo analysis (correlation analysis for ex vivo monocyte and neutrophil (PMN) FcgRIIA shedding in SLE patients was performed; combined results were analyzed using Spearman's correlation (r=0.84, P<0.0001)), we asked whether this could be attributed to circulating proteases, likely neutrophil-derived. […] Consistent with a role of RNA ICs, serum-mediated FcgRIIA shedding was higher in patients with anti-Sm/RNP antibodies (sera from 6 SLE patients, pre-incubated with either RNase, a pan-protease inhibitor (prot.inh.), or cytochalasin B (Cyto B, 5 μM) were added to neutrophils from a healthy individual and FcgRIIA shedding analyzed by flow cytometry; combined results were compared using paired t test (RNase: P=0.012; prot.inh.: P=0.0002; Cyto B: P<0.0001)). […] Finally, SLE serum-mediated shedding of FcgRIIA from healthy control neutrophils strongly correlated with the FcgRIIA shedding observed upon ex vivo isolation of the SLE patient's neutrophils (correlation between ex vivo FcgRIIA shedding observed on SLE neutrophils with the shedding ability by the serum obtained from the same SLE patients (n=12); combined results were analyzed by Spearman's correlation (r=0.73, P=0.0096)). […]

BAFF = BAFF cell surface expression on neutrophils; details: furin 100 ng/mL, 30 minutes before R848
Method: To determine which protease(s) were involved in the shedding of FcgRIIA, neutrophils were incubated with selective protease inhibitors prior to the addition of the TLR agonist. Cell surface levels of FcgRIIA (IV.3) was analyzed by flow cytometry upon R848 activation in the presence of a pan protease inhibitor or inhibitors of matrix metalloproteases (GM6001, 10 μM), cysteine proteases (E-64, 1 μM), serine proteases (AEBSF, 100 μM), neutrophil elastase (Elastase inhibitor IV, 25 μM), cathepsin G (chymostatin, 10 μg/mL) or furin (chloromethylketone (CMK, 25 μM). The experiment was repeated three (E-64), four (Pan Prot.inh., P<0.0001; AEBSF, P=0.0004; chymostatin; and CMK, P=0.0038), five (GM6001), and seven (NEi) times; combined results were compared using paired t test. […] Additionally, neutrophils were incubated with furin (100 ng/mL) or CMK 30 minutes prior to addition of R848. BAFF cell surface expression was analyzed by flow cytometry. […] Briefly, neutrophils were incubated with furin (100 ng/mL) in presence or absence of R848 and analyzed for FcgRIIA levels by flow cytometry. […] Finally, supernatant from activated neutrophils was fractionated and analyzed for capacity to induce shedding of monocyte FcgRIIA without, or with prior boiling of the fractions. […]

Row | Molecule | effect on R848 (TLR7/8)-mediated shedding of FcgRIIA on neutrophils (FcgRIIA on neutrophils [1]) | neutrophil cell surface expression of FcgRIIA after stimulus (FcgRIIA on neutrophils [1]) | also measured
1 | Cl.NCCc1ccc(S(=O)(=O)F)cc1 [AEBSF, 4-(2-Aminoethyl)benzenesulfonyl fluoride hydrochloride] | dependent on serine proteases |  | 
2 | CCCc1nc2c(N)nc3ccccc3c2s1 [CL075] |  | reduced neutrophil cell surface levels of FcgRIIA, but not of FcgRIIIB | 
3 | [Cl-].c1ccc2c(c1)[I+]c1ccccc1-2 [DPI] | completely restored cell surface levels of FcgRIIA |  | effect on LPS- or PAM3CSK4-mediated shedding of FcgRIIA (FcgRIIA on neutrophils [1]; neutrophils activated with LPS or PAM3CSK4 in presence of DPI): dependent on NADPH oxidase
4 | C=CCn1c(=O)n([C@@H]2O[C@H](CO)[C@@H](O)[C@H]2O)c2nc(N)[nH]c(=O)c21 [Loxoribine] |  | reduced neutrophil cell surface levels of FcgRIIA, but not of FcgRIIIB | 
5 | CCCCCCCCCCCCCC(=O)O[C@@H]1[C@@H](C)[C@@]2(O)[C@@H](C=C(CO)C[C@]3(O)C(=O)C(C)=C[C@@H]23)[C@@H]2C(C)(C)[C@]12OC(C)=O [PMA] |  |  | cellular localization of ROS generation (neutrophils): induced both intracellular and extracellular ROS generation
6 | COc1cc(C(C)=O)ccc1O [apocynin] | completely restored cell surface levels of FcgRIIA |  | 
7 | C=C1[C@@H](C)[C@H]2[C@H](Cc3ccccc3)NC(=O)[C@]23OC(=O)/C=C/[C@H](O)CCC[C@@H](C)C/C=C/[C@H]3[C@@H]1O [cytochalasin B] |  |  | effect on SLE serum-mediated FcgRIIA shedding (FcgRIIA on neutrophils [2]): almost completely abrogated serum-mediated FcgRIIA shedding
8 | PAM3CSK4 |  | reduced neutrophil cell surface levels of FcgRIIA, but not of FcgRIIIB | 
9 | furin: recombinant furin, pro-protein convertase (Peprotech) | did not affect FcgRIIA shedding on neutrophils |  | BAFF cell surface expression (BAFF): increased cell surface BAFF levels
